3 compounds from patent publication US9505717B2, “Acetic acid ester compound or salt thereof” (Taiho Pharmaceutical Co., Ltd., priority 2012, dated 2016) can be followed below.

The experiment deals with female SD rats. Put plainly: Test Example 1: urethral baseline pressure (intraurethral pressure) in rats after oral administration. It is filed as in vivo, rat. The note with it: 3 mg/kg oral, 11-week-old female SD rats, n=8, mean for 30 minutes after 8 hours from administration, Student's t-test vs distilled water group, FIG. 1. As to the method: The compounds of the present invention and comparative compounds were individually orally administered in an amount of 3 mg/kg to 11-week-old female SD rats (test substance-administration groups, n=8 for each group), and distilled water was orally administered as the control to 11-week-old female SD rats (solvent administration group, n=8). As the comparative compounds, 4-(1-methylpiperidyl) 2,2-diphenyl-2-propoxyacetate (Comparative Example 1), 4-(1-methylpiperidyl) 2,2-diphenyl-2-(propoxy-1,1,2,2,3,3,3-d7)acetate (Comparative Example 2), which is a deuterated compound of Comparative Example 1, and 4-piperidyl 2,2-diphenyl-2-propoxyacetate (Comparative Example 3), synthesized according to Patent Literatures 1 to 3, respectively, were used.
Seven and a half hours after administration, each rat was anesthetized by intraperitoneal administration of 1.2 g/kg of urethane. Thereafter, the ureters and the area between the urethra and the bladder were ligated, and a vesical fistula catheter and a catheter for measuring intraurethral pressure were inserted and indwelled in the bladder and the urethra. The catheter for measuring intraurethral pressure was inserted from the external urethral orifice. The other end of each catheter was connected to a corresponding pressure transducer branched into two directions via a corresponding three-way stopcock, and the remaining connecting portion of each three-way stopcock was connected to a corresponding syringe set in a continuous injection device. Intravesical pressure and intraurethral pressure were recorded via a polygraph connected with the pressure transducers. […] Physiological saline was injected into the urethra using the micro syringe pump connected to the urethra at 3 mL/hr, and the changes in intraurethral pressure associated with the rhythmic contraction were recorded.
The mean values of the urethral baseline pressure for the solvent administration group and the test substance-administration groups were calculated, and the results were indicated as mean±SE. […]

Consider `CCCOC(C(=O)OC1CCNCC1)(c1ccccc1)c1ccccc1` [Comparative Example 3, 4-piperidyl 2,2-diphenyl-2-propoxyacetate], for which the “urethral baseline pressure (effect versus solvent administration group)” value is recorded as “did not have a significant effect on urethral baseline pressure”.

With `CCCOC(C(=O)OC1CCN(C)CC1)(c1ccccc1)c1ccccc1` [Comparative Example 1, 4-(1-methylpiperidyl) 2,2-diphenyl-2-propoxyacetate], the “urethral baseline pressure (effect versus solvent administration group)” value is listed as “did not have a significant effect on urethral baseline pressure”.

With `[2H]C([2H])([2H])C([2H])([2H])C([2H])([2H])OC(C(=O)OC1CCN(C)CC1)(c1ccccc1)c1ccccc1` [Comparative Example 2, 4-(1-methylpiperidyl) 2,2-diphenyl-2-(propoxy-1,1,2,2,3,3,3-d7)acetate], the “urethral baseline pressure (effect versus solvent administration group)” value is reported as “did not have a significant effect on urethral baseline pressure”.
